{
  "source": "patent US5693668A",
  "about": "“Acetylcholinesterase inhibitors” (priority 1989, dated 1997)",
  "key": {"[1]": {"experiment": "In vivo transdermal delivery of MDL 73,745 from prototype patch in Beagle dogs", "parameters": "species or system Beagle dog", "procedure": "Transdermal Bioavailability of MDL 73,745 from a prototype transdermal delivery system in Beagle Dogs\nA `lead` prototype formulation was then evaluted in an in vivo dog model. […] The rate of in vivo transdermal delivery in the dog was calculated to be 7.7 μg/cm^2 /hr.\n(§1) Three male Beagle dogs were studied. Animals were fasted 12 h before drug administration but had free access to drinking water. The following single doses of [^14 C]-MDL 73,745 were administered: intravenous (iv): 1 and 2 mg/kg; oral (po): 10 mg/kg; subcutaneous (sc): 10 mg/kg. There was a two week wash-out period between each administration. Drug was administered as a suspension in 0.5% methyl cellulose.\nFrom the equation: S.ko=Cl.Css\nS=area (cm^2) of the patch\nCss =steady-state concentration (ng/ml)\nko-rate of release from the delivery system per unit surface area can be calculated: […]"}, "[2]": {"experiment": "Pharmacokinetics and bioavailability of [14C]-MDL 73,745 in Beagle dogs", "format": "in vivo, Beagle dog", "conditions": "for half-life / clearance / Vd / Cmax / Tmax / bioavailability: dog, in vivo; for Vd: read-out: aVd; for bioavailability: normalized to 2 mg/kg iv", "procedure": "as §1, with “cellulose. […]” for “cellulose.”"}, "[3]": {"conditions": "iv, 2 mg/kg, iv 2 mg/kg, dog No. 17"}, "[4]": {"conditions": "iv, 2 mg/kg, iv 2 mg/kg, dog No. 18"}, "[5]": {"conditions": "iv, 2 mg/kg, iv 2 mg/kg, dog No. 19"}, "[6]": {"conditions": "iv, 2 mg/kg, iv 2 mg/kg, mean ± SD of 3 dogs"}, "[7]": {"conditions": "po, 10 mg/kg, oral 10 mg/kg, dog No. 17"}, "[8]": {"conditions": "po, 10 mg/kg, oral 10 mg/kg, dog No. 18"}, "[9]": {"conditions": "po, 10 mg/kg, oral 10 mg/kg, dog No. 19"}, "[10]": {"conditions": "po, 10 mg/kg, oral 10 mg/kg, mean ± SD of 3 dogs"}, "[11]": {"conditions": "sc, 10 mg/kg, subcutaneous 10 mg/kg, dog No. 17"}, "[12]": {"conditions": "sc, 10 mg/kg, subcutaneous 10 mg/kg, dog No. 18"}, "[13]": {"conditions": "sc, 10 mg/kg, subcutaneous 10 mg/kg, dog No. 19"}, "[14]": {"conditions": "sc, 10 mg/kg, subcutaneous 10 mg/kg, mean ± SD of 3 dogs"}},
  "note": "Read-outs that look alike come from different tables or passages of the source.",
  "data": [
    {"smiles": "C[Si](C)(C)c1cccc(C(=O)C(F)(F)F)c1", "note": "[MDL 73,745, 2,2,2-Trifluoro-1-(3-trimethylsilylphenyl) ethanone]", "values": [
      {"measurement": "rate of in vivo transdermal delivery", "setting": "[1]; `lead` prototype patch, dog, calculated", "value": 7.7, "unit": "μg/cm^2 /hr"},
      {"measurement": "plasma level", "setting": "[1]; `lead` prototype patch, throughout patch application (96 hours)", "value": "constant, steady state plasma level"},
      {"measurement": "ko, rate of release from the delivery system per unit surface area", "setting": "[1]; patch 70% w/w MDL 73,745 in DuroTak 80-1074, 5 mg/cm^2, same for both doses, from S.ko=Cl.Css", "value": 7.7, "unit": "μg/hr/cm^2"},
      {"measurement": "half-life", "setting": "[2]; [3]", "value": 18.6, "unit": "h"},
      {"measurement": "clearance", "setting": "[2]; iv, 2 mg/kg, iv 2 mg/kg, dog No. 17, read-out: Cltot", "value": 78.3, "unit": "mL/min/kg"},
      {"measurement": "Vd", "setting": "[2]; [3]", "value": 125, "unit": "L/kg"},
      {"measurement": "half-life", "setting": "[2]; [4]", "value": 28.1, "unit": "h"},
      {"measurement": "clearance", "setting": "[2]; iv, 2 mg/kg, iv 2 mg/kg, dog No. 18, read-out: Cltot", "value": 63.3, "unit": "mL/min/kg"},
      {"measurement": "Vd", "setting": "[2]; [4]", "value": 153, "unit": "L/kg"},
      {"measurement": "half-life", "setting": "[2]; [5]", "value": 26.2, "unit": "h"},
      {"measurement": "clearance", "setting": "[2]; iv, 2 mg/kg, iv 2 mg/kg, dog No. 19, read-out: Cltot", "value": 100, "unit": "mL/min/kg"},
      {"measurement": "Vd", "setting": "[2]; [5]", "value": 228, "unit": "L/kg"},
      {"measurement": "half-life", "setting": "[2]; [6]", "value": "24.3 ± 5", "unit": "h"},
      {"measurement": "clearance", "setting": "[2]; iv, 2 mg/kg, iv 2 mg/kg, mean ± SD of 3 dogs, read-out: Cltot", "value": "80.5 ± 18.5", "unit": "mL/min/kg"},
      {"measurement": "Vd", "setting": "[2]; [6]", "value": "169 ± 53.3", "unit": "L/kg"},
      {"measurement": "clearance", "setting": "[2]; iv, iv data, read-out: drug clearance", "value": 960, "unit": "mL/min"},
      {"measurement": "Cmax", "setting": "[2]; [7]", "value": 15.8, "unit": "ng/mL"},
      {"measurement": "Tmax", "setting": "[2]; [7]", "value": 1, "unit": "h"},
      {"measurement": "half-life", "setting": "[2]; [7]", "value": 21.4, "unit": "h"},
      {"measurement": "Cmax", "setting": "[2]; [8]", "value": 15.3, "unit": "ng/mL"},
      {"measurement": "Tmax", "setting": "[2]; [8]", "value": 0.17, "unit": "h"},
      {"measurement": "half-life", "setting": "[2]; [8]", "value": 29.5, "unit": "h"},
      {"measurement": "Cmax", "setting": "[2]; [9]", "value": 21.8, "unit": "ng/mL"},
      {"measurement": "Tmax", "setting": "[2]; [9]", "value": 1, "unit": "h"},
      {"measurement": "half-life", "setting": "[2]; [9]", "value": 17.4, "unit": "h"},
      {"measurement": "Cmax", "setting": "[2]; [10]", "value": "17.7 ± 3.58", "unit": "ng/mL"},
      {"measurement": "Tmax", "setting": "[2]; [10]", "value": "0.72 ± 0.48", "unit": "h"},
      {"measurement": "half-life", "setting": "[2]; [10]", "value": "22.8 ± 6.2", "unit": "h"},
      {"measurement": "bioavailability", "setting": "[2]; po, 10 mg/kg, oral 10 mg/kg, dog No. 17, read-out: F (AUCpo /AUCiv)", "value": 3.4, "unit": "%"},
      {"measurement": "bioavailability", "setting": "[2]; po, 10 mg/kg, oral 10 mg/kg, dog No. 18, read-out: F (AUCpo /AUCiv)", "value": 2.6, "unit": "%"},
      {"measurement": "bioavailability", "setting": "[2]; po, 10 mg/kg, oral 10 mg/kg, dog No. 19, read-out: F (AUCpo /AUCiv)", "value": 4.5, "unit": "%"},
      {"measurement": "bioavailability", "setting": "[2]; po, 10 mg/kg, oral 10 mg/kg, mean ± SD of 3 dogs, read-out: F (AUCpo /AUCiv)", "value": "3.5 ± 1", "unit": "%"},
      {"measurement": "bioavailability", "setting": "[2]; po, 10 mg/kg, oral, 10 mg/kg, read-out: Mean bioavailability (F)", "value": 4, "unit": "%"},
      {"measurement": "Cmax", "setting": "[2]; [11]", "value": 68.4, "unit": "ng/mL"},
      {"measurement": "Tmax", "setting": "[2]; [11]", "value": 6, "unit": "h"},
      {"measurement": "half-life", "setting": "[2]; [11]", "value": 12.8, "unit": "h"},
      {"measurement": "Cmax", "setting": "[2]; [12]", "value": 42.9, "unit": "ng/mL"},
      {"measurement": "Tmax", "setting": "[2]; [12]", "value": 8, "unit": "h"},
      {"measurement": "half-life", "setting": "[2]; [12]", "value": 32.7, "unit": "h"},
      {"measurement": "Cmax", "setting": "[2]; [13]", "value": 44.7, "unit": "ng/mL"},
      {"measurement": "Tmax", "setting": "[2]; [13]", "value": 4, "unit": "h"},
      {"measurement": "half-life", "setting": "[2]; [13]", "value": 24.5, "unit": "h"},
      {"measurement": "Cmax", "setting": "[2]; [14]", "value": "52 ± 14.2", "unit": "ng/mL"},
      {"measurement": "Tmax", "setting": "[2]; [14]", "value": "6 ± 2", "unit": "h"},
      {"measurement": "half-life", "setting": "[2]; [14]", "value": "23.3 ± 10", "unit": "h"},
      {"measurement": "bioavailability", "setting": "[2]; sc, 10 mg/kg, subcutaneous 10 mg/kg, dog No. 17, read-out: F", "value": 41, "unit": "%"},
      {"measurement": "bioavailability", "setting": "[2]; sc, 10 mg/kg, subcutaneous 10 mg/kg, dog No. 18, read-out: F", "value": 25, "unit": "%"},
      {"measurement": "bioavailability", "setting": "[2]; sc, 10 mg/kg, subcutaneous 10 mg/kg, dog No. 19, read-out: F", "value": 36, "unit": "%"},
      {"measurement": "bioavailability", "setting": "[2]; sc, 10 mg/kg, subcutaneous, 10 mg/kg, read-out: Mean bioavailability (F)", "value": 34, "unit": "%"},
      {"measurement": "bioavailability", "setting": "[2]; topical or ocular, 10 mg/kg, dermal patch, 10 mg/kg, read-out: Mean bioavailability (F)", "value": 16, "unit": "%"},
      {"measurement": "bioavailability", "setting": "[2]; topical or ocular, 10 mg/kg, topical dermal cream, 10 mg/kg, read-out: Mean bioavailability (F)", "value": 7, "unit": "%"},
      {"measurement": "bioavailability", "setting": "[2]; topical or ocular, 50 mg/kg, dermal patch, 50 mg/kg, read-out: Mean bioavailability (F)", "value": 12, "unit": "%"},
      {"measurement": "bioavailability", "setting": "[2]; topical or ocular, 50 mg/kg, topical dermal cream, 50 mg/kg, read-out: Mean bioavailability (F)", "value": 3, "unit": "%"},
      {"measurement": "Metabolic Index (AUCun /AUCRAD)", "setting": "[2]; iv 2 mg/kg, dog No. 17", "value": 0.011},
      {"measurement": "Metabolic Index (AUCun /AUCRAD)", "setting": "[2]; iv 2 mg/kg, dog No. 18", "value": 0.015},
      {"measurement": "Metabolic Index (AUCun /AUCRAD)", "setting": "[2]; iv 2 mg/kg, dog No. 19", "value": 0.009},
      {"measurement": "Metabolic Index (AUCun /AUCRAD)", "setting": "[2]; iv 2 mg/kg, mean ± SD of 3 dogs", "value": "0.012 ± 0.003"},
      {"measurement": "Metabolic Index (AUCun /AUCRAD)", "setting": "[2]; oral 10 mg/kg, dog No. 17", "value": 0.0006},
      {"measurement": "Metabolic Index (AUCun /AUCRAD)", "setting": "[2]; oral 10 mg/kg, dog No. 18", "value": 0.0011},
      {"measurement": "Metabolic Index (AUCun /AUCRAD)", "setting": "[2]; oral 10 mg/kg, dog No. 19", "value": 0.0006},
      {"measurement": "Metabolic Index (AUCun /AUCRAD)", "setting": "[2]; oral 10 mg/kg, mean ± SD of 3 dogs", "value": "0.0008 ± 0.0003"},
      {"measurement": "Metabolic Index (AUCun /AUCRAD)", "setting": "[2]; subcutaneous 10 mg/kg, dog No. 17", "value": 0.006},
      {"measurement": "Metabolic Index (AUCun /AUCRAD)", "setting": "[2]; subcutaneous 10 mg/kg, dog No. 18", "value": 0.007},
      {"measurement": "Metabolic Index (AUCun /AUCRAD)", "setting": "[2]; subcutaneous 10 mg/kg, dog No. 19", "value": 0.004},
      {"measurement": "Metabolic Index (AUCun /AUCRAD)", "setting": "[2]; subcutaneous 10 mg/kg, mean ± SD of 3 dogs", "value": "0.006 ± 0.002"}
    ]}
  ]
}
